The results in this text go back to patent US9676732B2, “Ethynyl derivatives” (Hoffmann-La Roche Inc., priority 2013, dated 2017).

Molecules are shown by their SMILES.

Broadly, the EC50 is the midpoint of the concentration-response curve.

The target in this test is human mGlu4 receptor (Homo sapiens (Human), UniProt Q14833). In words: Ca2+ mobilization in vitro assay on recombinant human mGlu4 expressed in HEK293 cells (mGlu4 PAM). The following applies: for EC50: HEK293 cells stably expressing human mGlu4, L-AP4 added at EC20, read-out: EC50 (nM) mGlu4PAM; for Eff. (%): maximal response in % of the maximal stimulatory effect obtained with saturating concentrations of L-AP4. The format is cell-based. The protocol: Determination of EC50 Values Using a Ca2+ Mobilization In Vitro Assay on Recombinant Human mGlu4 Expressed in HEK293 Cells:
A monoclonal HEK-293 cell line stably transfected with a cDNA encoding for the human mGlu4 receptor was generated; for the work with mGlu4 Positive Allosteric Modulators (PAMs), a cell line with low receptor expression levels and low constitutive receptor activity was selected to allow the differentiation of agonistic versus PAM activity. Cells were cultured according to standard protocols (Freshney, 2000) in Dulbecco's Modified Eagle Medium with high glucose supplemented with 1 mM glutamine, 10% (vol/vol) heat-inactivated bovine calf serum, Penicillin/Streptomycin, 50 μg/ml hygromycin and 15 μg/ml blasticidin (all cell culture reagents and antibiotics from Invitrogen, Basel, Switzerland).
About 24 hrs before an experiment, 5×10^4 cells/well were seeded in poly-D-lysine coated, black/clear-bottomed 96-well plates. The cells were loaded with 2.5 μM Fluo-4AM in loading buffer (1×HBSS, 20 mM HEPES) for 1 hr at 37° C. and washed five times with loading buffer. The cells were transferred into a Functional Drug Screening System 7000 (Hamamatsu, Paris, France), and 11 half logarithmic serial dilutions of test compound at 37° C. were added and the cells were incubated for 10-30 min. with on-line recording of fluorescence. Following this pre-incubation step, the agonist (2S)-2-amino-4-phosphonobutanoic acid (L-AP4) was added to the cells at a concentration corresponding to EC20 with on-line recording of fluorescence; in order to account for day-to-day variations in the responsiveness of cells, the EC20 of L-AP4 was determined immediately ahead of each experiment by recording of a full dose-response curve of L-AP4.
Responses were measured as peak increase in fluorescence minus basal (i.e. fluorescence without addition of L-AP4), normalized to the maximal stimulatory effect obtained with saturating concentrations of L-AP4. Graphs were plotted with the % maximal stimulatory using XLfit, a curve fitting program that iteratively plots the data using Levenburg Marquardt algorithm. The single site competition analysis equation used was y=A+((B−A)/(1+((x/C)D))), where y is the % maximal stimulatory effect, A is the minimum y, B is the maximum y, C is the EC50, x is the log 10 of the concentration of the competing compound and D is the slope of the curve (the Hill Coefficient). From these curves the EC50 (drug concentration at which 50% of the maximal receptor activation was achieved), the Hill coefficient as well as the maximal response in % of the maximal stimulatory effect obtained with saturating concentrations of L-AP4 were calculated (see FIG. 1).
A depression of the signal observed after addition of the EC20 concentration of L-AP4 was indicative of an inhibitory activity of the test compound. • FIG. 1: Illustration of the experimental outline for mGlu4 PAM Ca2+ mobilization screening assay and the determination of EC50 and % Emax values.

human mGlu4 receptor, sequence (Q14833 33-912): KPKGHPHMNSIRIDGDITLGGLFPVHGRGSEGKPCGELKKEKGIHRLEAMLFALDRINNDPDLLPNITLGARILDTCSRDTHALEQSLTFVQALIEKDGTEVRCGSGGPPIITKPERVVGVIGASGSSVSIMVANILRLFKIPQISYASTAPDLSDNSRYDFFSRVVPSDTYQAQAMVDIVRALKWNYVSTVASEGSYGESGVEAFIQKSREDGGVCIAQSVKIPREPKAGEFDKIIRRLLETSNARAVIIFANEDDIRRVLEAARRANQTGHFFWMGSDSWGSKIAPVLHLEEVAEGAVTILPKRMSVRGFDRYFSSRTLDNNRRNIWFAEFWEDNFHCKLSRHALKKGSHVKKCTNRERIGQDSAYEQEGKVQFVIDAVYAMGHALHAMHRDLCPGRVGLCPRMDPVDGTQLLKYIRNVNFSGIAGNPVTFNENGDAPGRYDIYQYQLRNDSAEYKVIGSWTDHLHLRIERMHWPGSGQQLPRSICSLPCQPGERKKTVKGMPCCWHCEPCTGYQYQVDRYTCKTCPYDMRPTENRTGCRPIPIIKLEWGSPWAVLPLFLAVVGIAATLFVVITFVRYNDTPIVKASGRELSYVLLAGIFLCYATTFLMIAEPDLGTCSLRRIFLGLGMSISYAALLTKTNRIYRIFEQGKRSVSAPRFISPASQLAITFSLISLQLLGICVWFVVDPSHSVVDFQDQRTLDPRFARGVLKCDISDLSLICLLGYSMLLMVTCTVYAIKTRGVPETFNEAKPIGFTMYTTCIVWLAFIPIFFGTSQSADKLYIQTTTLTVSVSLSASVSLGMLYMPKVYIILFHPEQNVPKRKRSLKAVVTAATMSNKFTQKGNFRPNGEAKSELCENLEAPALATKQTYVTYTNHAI

Consider `Cn1c(=O)n(-c2ccc(C#Cc3ccccc3)cc2Cl)c(=O)c2cnccc21` [Example 10, 3-[2-Chloro-4-(2-phenylethynyl)phenyl]-1-methyl-pyrido[4,3-d]pyrimidine-2,4-dione], for which the 50% effective concentration (EC50) amounted to 399 nM and the “Eff. (%)” value came out at 180%.
For `Cc1csc2c(=O)n(-c3c(F)cc(C#Cc4ccccc4)cc3F)c(=O)n(C)c12` [Example 27, 3-[2,6-Difluoro-4-(2-phenylethynyl)phenyl]-1,7-dimethyl-thieno[3,2-d]pyrimidine-2,4-dione], in that order: 16 nM and 83%.
For `Cc1csc2c(=O)n(-c3ccc(C#Cc4ccccc4)cc3Cl)c(=O)n(C)c12` [Example 20, 3-[2-Chloro-4-(2-phenylethynyl)phenyl]-1,7-dimethyl-thieno[3,2-d]pyrimidine-2,4-dione], in that order: 50 nM and 74%.
The corresponding values for `CC(C)n1c(=O)n(-c2c(F)cc(C#Cc3cccnc3)cc2Cl)c(=O)c2ccccc21` [Example 42, 3-[2-Chloro-6-fluoro-4-[2-(3-pyridyl)ethynyl]phenyl]-1-isopropyl-quinazoline-2,4-dione] are 83 nM and 80%.
Consider `Cc1cccc2c(=O)n(-c3c(F)cc(C#Cc4cccnc4)cc3F)c(=O)n(C)c12` [Example 73, 3-[2,6-Difluoro-4-[2-(3-pyridyl)ethynyl]phenyl]-1,8-dimethyl-quinazoline-2,4-dione], for which the EC50 is 154 nM and the “Eff. (%)” value was found to be 197%.
Turning to `O=c1c2ccccc2n(C2COC2)c(=O)n1-c1c(F)cc(C#Cc2cccnc2)cc1Cl` [Example 71, 3-[2-Chloro-6-fluoro-4-[2-(3-pyridyl)ethynyl]phenyl]-1-(oxetan-3-yl)quinazoline-2,4-dione], the EC50 was 86 nM and the “Eff. (%)” value amounted to 103%.
For `Cn1c(=O)n(-c2c(F)cc(C#Cc3ccccc3)cc2F)c(=O)c2nccc(Cl)c21` [Example 61, 8-Chloro-3-[2,6-difluoro-4-(2-phenylethynyl)phenyl]-1-methyl-pyrido[3,2-d]pyrimidine-2,4-dione], in that order: 91 nM and 129%.
The corresponding values for `CC(C)n1c(=O)n(-c2c(F)cc(C#Cc3ccccc3)cc2C(F)(F)F)c(=O)c2ccccc21` [Example 72, 3-[2-Fluoro-4-(2-phenylethynyl)-6-(trifluoromethyl)phenyl]-1-isopropyl-quinazoline-2,4-dione] are 63 nM and 134%.
The corresponding values for `O=c1[nH]c2ncncc2c(=O)n1-c1ccc(C#Cc2ccccc2)cc1Cl` [Example 16, 3-[2-Chloro-4-(2-phenylethynyl)phenyl]-1H-pyrimido[4,5-d]pyrimidine-2,4-dione] are 152 nM and 98%.
As to `CC(C)n1c(=O)n(-c2c(F)cc(C#Cc3ccccc3)cc2F)c(=O)c2c[nH]nc21` [Example 64, 5-[2,6-Difluoro-4-(2-phenylethynyl)phenyl]-7-isopropyl-2H-pyrazolo[3,4-d]pyrimidine-4,6-dione], the EC50 stood at 121 nM and the “Eff. (%)” value came out at 120%.
For `CC(C)n1c(=O)n(-c2c(F)cc(C#Cc3ccccc3)cc2F)c(=O)c2cccnc21` [Example 37, 3-[2,6-Difluoro-4-(2-phenylethynyl)phenyl]-1-isopropyl-pyrido[2,3-d]pyrimidine-2,4-dione], in that order: 88 nM and 73%.
In the case of `CC(C)n1c(=O)n(-c2ccc(C#Cc3ccccc3)cc2Cl)c(=O)c2ccccc21` [Example 13, 3-[2-Chloro-4-(2-phenylethynyl)phenyl]-1-isopropyl-quinazoline-2,4-dione], the EC50 is 57 nM and the “Eff. (%)” value is 115%.
The corresponding values for `Cn1cnc2c1c(=O)n(-c1c(F)cc(C#Cc3ccccc3)cc1F)c(=O)n2C` [Example 69, 1-[2,6-Difluoro-4-(2-phenylethynyl)phenyl]-3,7-dimethyl-purine-2,6-dione] are 50 nM and 113%.
The corresponding values for `Cn1c(=O)n(-c2ccc(C#Cc3ccccc3)cc2Cl)c(=O)c2scnc21` [Example 52, 6-(2-Chloro-4-phenylethynyl-phenyl)-4-methyl-4H-thiazolo[4,5-d]pyrimidine-5,7-dione] are 200 nM and 110%.
Regarding `O=c1c2cccc3c2n(c(=O)n1-c1ccc(C#Cc2ccccc2)cc1Cl)CC3` [Example 12, 2-(2-Chloro-4-(phenylethynyl)phenyl)-5,6-dihydro-1H-pyrrolo[3,2,1-ij]quinazoline-1,3(2H)-dione], the concentration for a half-maximal effect (EC50) turned out to be 80 nM and the “Eff. (%)” value worked out at 106%.
For `CC(C)c1cccc2c(=O)n(-c3ccc(C#Cc4ccccc4)cc3Cl)c(=O)n(C)c12` [Example 54, 3-[2-Chloro-4-(2-phenylethynyl)phenyl]-8-isopropyl-1-methyl-quinazoline-2,4-dione], in that order: 179 nM and 97%.
The corresponding values for `Cn1c(=O)n(-c2ccc(C#Cc3ccccc3)cc2Cl)c(=O)c2ncsc21` [Example 67, 6-[2-Chloro-4-(2-phenylethynyl)phenyl]-4-methyl-thiazolo[5,4-d]pyrimidine-5,7-dione] are 246 nM and 188%.
For `Cn1cc2c(n1)c(=O)n(-c1c(F)cc(C#Cc3ccccc3)cc1F)c(=O)n2C` [Example 33, 6-[2,6-Difluoro-4-(2-phenylethynyl)phenyl]-2,4-dimethyl-pyrazolo[4,3-d]pyrimidine-5,7-dione], the concentration giving a half-maximal response (EC50) was determined as 47 nM and the “Eff. (%)” value was 86%.
For `Cn1ncc2c(=O)n(-c3c(F)cc(C#Cc4ccccc4)cc3F)c(=O)n(C)c21` [Example 63, 5-[2,6-Difluoro-4-(2-phenylethynyl)phenyl]-1,7-dimethyl-pyrazolo[3,4-d]pyrimidine-4,6-dione], in that order: 26 nM and 146%.
For `CC(C)n1c(=O)n(-c2ncc(C#Cc3cccnc3)cc2Cl)c(=O)c2nn(C)cc21` [Example 59, 6-[3-Chloro-5-[2-(3-pyridyl)ethynyl]-2-pyridyl]-4-isopropyl-2-methyl-pyrazolo[4,3-d]pyrimidine-5,7-dione], in that order: 169 nM and 146%.
The corresponding values for `CC(C)n1c(=O)n(-c2c(F)cc(C#Cc3ccccc3)cc2F)c(=O)c2nn(C)cc21` [Example 35, 6-[2,6-Difluoro-4-(2-phenylethynyl)phenyl]-4-isopropyl-2-methyl-pyrazolo[4,3-d]pyrimidine-5,7-dione] are 30 nM and 89%.
As for `CC(C)n1c(=O)n(-c2ncc(C#Cc3ccccc3)cc2F)c(=O)c2nn(C)cc21` [Example 56, 6-[3-Fluoro-5-(2-phenylethynyl)-2-pyridyl]-4-isopropyl-2-methyl-pyrazolo[4,3-d]pyrimidine-5,7-dione], the EC50 is 121 nM and the “Eff. (%)” value was 120%.
With `Cc1ccc2c(=O)n(-c3ccc(C#Cc4ccccc4)cc3Cl)c(=O)n(C)c2c1` [Example 5, 3-[2-Chloro-4-(2-phenylethynyl)phenyl]-1,7-dimethyl-quinazoline-2,4-dione], the concentration giving a half-maximal response (EC50) was determined as 93 nM and the “Eff. (%)” value is given as 108%.
The corresponding values for `CC(C)n1c(=O)n(-c2ncc(C#Cc3ccccc3)cc2Cl)c(=O)c2nn(C)cc21` [Example 60, 6-[3-Chloro-5-(2-phenylethynyl)-2-pyridyl]-4-isopropyl-2-methyl-pyrazolo[4,3-d]pyrimidine-5,7-dione] are 189 nM and 150%.
As to `Cc1cccc2c(=O)n(-c3ncc(C#Cc4ccccc4)cc3Cl)c(=O)n(C)c12` [Example 46, 3-[3-Chloro-5-(2-phenylethynyl)-2-pyridyl]-1,8-dimethyl-quinazoline-2,4-dione], the EC50 amounted to 141 nM and the “Eff. (%)” value is reported as 113%.
Consider `O=c1[nH]c2ncccc2c(=O)n1-c1ccc(C#Cc2ccccc2)cc1Cl` [Example 6, 3-[2-Chloro-4-(2-phenylethynyl)phenyl]-1H-pyrido[2,3-d]pyrimidine-2,4-dione], for which the EC50 is 179 nM and the “Eff. (%)” value was determined as 104%.
